The source of these data is PubChem BioAssay (NCI).

Some test systems named below: HS 578T breast; T-47D breast; NCI-H226 lung; UACC-62 melanoma; NCI-H23 lung; MOLT-4 leukemia; HCC-2998 colon.
What all share (test): growth of human tumour cells (NCI), 48 h

Each structure is given as a SMILES string.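 Protocol summary: plate cells (96-well), add compound at 5 concentrations, incubate 48 h, interpolate endpoints linearly. GI50: concentration for 50% inhibition of growth. TGI: total growth inhibition.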

Regarding `CNc1ncc2cc(Oc3ccc(F)cc3F)c(=O)n(C)c2n1`, the GI50 in the assay with HS 578T breast, in the assay with T-47D breast, in the assay on NCI-H226 lung, in the assay on UACC-62 melanoma, with NCI-H23 lung and in the assay on MOLT-4 leukemia was greater than 25 µM throughout. Moreover, the GI50 in the assay on HCC-2998 colon is greater than 25 µM. For the same molecule, the TGI with HS 578T breast, in the assay with T-47D breast, in the assay with NCI-H226 lung, in the assay on UACC-62 melanoma, in the assay on NCI-H23 lung and in the assay with MOLT-4 leukemia was greater than 25 µM each time. This molecule also gave a TGI in the assay on HCC-2998 colon greater than 25 µM.

For the molecule `Nc1cc(-c2ccccc2)n(C(=O)Nc2ccc(Oc3ccccc3)cc2)n1`, the GI50 in the assay on HS 578T breast is 31.9 µM; in the assay with T-47D breast, 86.2 µM; in the assay on NCI-H226 lung, 49.5 µM; in the assay with UACC-62 melanoma, greater than 100 µM; in the assay with NCI-H23 lung, greater than 100 µM; in the assay on MOLT-4 leukemia, 50.5 µM. The GI50 with HCC-2998 colon was greater than 100 µM. Besides, the TGI with HS 578T breast, in the assay on T-47D breast, in the assay with NCI-H226 lung, in the assay with UACC-62 melanoma, in the assay with NCI-H23 lung and in the assay with MOLT-4 leukemia was greater than 100 µM throughout. Also, the TGI in the assay with HCC-2998 colon is greater than 100 µM.

Take `CNC(=O)c1cncc(/C=C/c2c(Cl)cccc2Cl)c1`: the GI50 was 7.17 µM with HS 578T breast; greater than 18.1 µM in the assay with T-47D breast; greater than 24.1 µM with NCI-H226 lung; greater than 19.8 µM in the assay on UACC-62 melanoma; greater than 25 µM in the assay with NCI-H23 lung; greater than 21.9 µM in the assay on MOLT-4 leukemia. Further, the GI50 in the assay with HCC-2998 colon is greater than 25 µM. Also, the TGI was greater than 21.6 µM in the assay on HS 578T breast; greater than 25 µM with T-47D breast; greater than 25 µM in the assay with NCI-H226 lung; greater than 25 µM in the assay with UACC-62 melanoma; greater than 25 µM in the assay with NCI-H23 lung; greater than 25 µM in the assay with MOLT-4 leukemia. This molecule had a TGI with HCC-2998 colon greater than 25 µM.

Regarding `O=C(NN1C(=O)CSC12CCC(c1ccccc1)CC2)c1[nH]c2ccc(F)cc2c1-c1ccccc1` (stereo unspecified), the GI50 with HS 578T breast is 21.4 µM; in the assay with T-47D breast it was 33.5 µM; in the assay with NCI-H226 lung it was 19.2 µM; in the assay with UACC-62 melanoma it was 10.8 µM; in the assay on NCI-H23 lung it was 17.4 µM; with MOLT-4 leukemia, 12.2 µM. Besides, the GI50 in the assay on HCC-2998 colon is 14.9 µM. Further, the TGI in the assay with HS 578T breast is 52.3 µM; in the assay with T-47D breast, greater than 100 µM; in the assay on NCI-H226 lung it was 38.6 µM; in the assay with UACC-62 melanoma, 23.8 µM; in the assay on NCI-H23 lung, 32 µM; in the assay with MOLT-4 leukemia it was 33.7 µM. The same molecule showed a TGI with HCC-2998 colon of 28.3 µM.

On to `O=C(Cn1c2ccccc2c2ccncc21)N/N=C\c1ccc2ccccc2c1`, for which the GI50 with HS 578T breast was 23.5 µM; with T-47D breast, 25.2 µM; in the assay on NCI-H226 lung, 21.9 µM; in the assay on UACC-62 melanoma, 18 µM; in the assay with NCI-H23 lung, 17.6 µM; in the assay on MOLT-4 leukemia it was 16.7 µM. The GI50 in the assay on HCC-2998 colon is 35.9 µM. Further, the TGI in the assay with HS 578T breast is 79.2 µM; in the assay on T-47D breast, greater than 100 µM; in the assay on NCI-H226 lung it was 65.2 µM; with UACC-62 melanoma, 42.9 µM; in the assay with NCI-H23 lung it was 52.6 µM; with MOLT-4 leukemia, greater than 100 µM. In the assay on HCC-2998 colon, this molecule returned a TGI greater than 100 µM.

Regarding `CN(C)C(=S)SCC(N)=O`, the TGI in the assay on HS 578T breast, in the assay on T-47D breast, in the assay with NCI-H226 lung, in the assay with UACC-62 melanoma, in the assay with NCI-H23 lung and in the assay on MOLT-4 leukemia was greater than 100 µM throughout. Further, the TGI in the assay on HCC-2998 colon was greater than 100 µM.

Turning to `O=C(CN1C(=O)S/C(=C\C(Cl)=C\c2ccccc2)C1=O)NCCCn1ccnc1`, the GI50 is 2.4 µM in the assay with HS 578T breast; 2.8 µM in the assay with T-47D breast; 2.16 µM in the assay on NCI-H226 lung; 1.67 µM with UACC-62 melanoma; 2.26 µM in the assay on NCI-H23 lung; 2.1 µM in the assay with MOLT-4 leukemia. Further, the GI50 in the assay with HCC-2998 colon is 1.88 µM. The TGI came to 7.35 µM with HS 578T breast; 17.2 µM with T-47D breast; 5.19 µM in the assay with NCI-H226 lung; 3.73 µM in the assay with UACC-62 melanoma; 6.88 µM in the assay on NCI-H23 lung; 7.57 µM in the assay with MOLT-4 leukemia. Besides, the TGI in the assay with HCC-2998 colon came to 3.57 µM.

On to `COc1ccc2c(c1)C=C1CSCC3=Cc4cc(OC)ccc4OC13O2`, for which the GI50 was 0.313 µM in the assay with HS 578T breast; 0.418 µM in the assay with T-47D breast; 0.783 µM in the assay with UACC-62 melanoma; 1.01 µM with NCI-H23 lung; 0.486 µM in the assay on MOLT-4 leukemia; 1.07 µM in the assay with HCC-2998 colon. Further, the TGI with HS 578T breast, in the assay with T-47D breast, with NCI-H226 lung, in the assay on UACC-62 melanoma, in the assay on NCI-H23 lung and in the assay with MOLT-4 leukemia was greater than 100 µM each time. The same molecule showed a TGI in the assay on HCC-2998 colon greater than 100 µM.

Consider `c1ccc(/C(=N\Nc2ccc3ccccc3n2)c2ccccn2)cc1`, for which the GI50 was 4.42 µM in the assay on HS 578T breast; 0.315 µM in the assay on T-47D breast; 0.534 µM with NCI-H226 lung; 0.549 µM in the assay on UACC-62 melanoma; 0.983 µM with NCI-H23 lung; 0.252 µM in the assay with MOLT-4 leukemia. The GI50 in the assay on HCC-2998 colon is 0.904 µM. Besides, the TGI is 41.6 µM in the assay on HS 578T breast; 26 µM in the assay with T-47D breast; 5.16 µM in the assay with NCI-H226 lung; 7.41 µM in the assay with UACC-62 melanoma; 22.8 µM with NCI-H23 lung; 0.69 µM with MOLT-4 leukemia. In addition, the TGI in the assay on HCC-2998 colon is 16.7 µM.

As for `O=CN1N=C(c2ccc(Nc3ccnc4cc(Cl)ccc34)cc2)CC1c1ccc(Cl)cc1` (stereo unspecified), the GI50 is 3.93 µM in the assay on HS 578T breast; 1.56 µM with T-47D breast; 4.66 µM with NCI-H226 lung; 0.567 µM in the assay on UACC-62 melanoma; 2.77 µM in the assay with NCI-H23 lung; 0.529 µM with MOLT-4 leukemia. The GI50 with HCC-2998 colon is 1.61 µM. The TGI in the assay with HS 578T breast, with T-47D breast, in the assay with NCI-H226 lung, in the assay with UACC-62 melanoma, in the assay with NCI-H23 lung and with MOLT-4 leukemia was greater than 100 µM in each case. The TGI in the assay on HCC-2998 colon stood at 8.11 µM.

With `CCc1nc(N)nc(N)c1C#CC(C)c1cc(-c2ccnc(C)c2)c2oc(C)nc2c1` (stereo unspecified), the GI50 with HS 578T breast was 1.5 µM; in the assay with T-47D breast it was 0.283 µM; in the assay with NCI-H226 lung it was 0.913 µM; in the assay on UACC-62 melanoma it was less than 0.01 µM; with NCI-H23 lung, less than 0.01 µM; with MOLT-4 leukemia it was less than 0.01 µM. In addition, the GI50 in the assay on HCC-2998 colon is 0.0206 µM. Further, the TGI in the assay on HS 578T breast was 13.9 µM; in the assay on T-47D breast it was 8.5 µM; in the assay on NCI-H226 lung, 11.2 µM; with UACC-62 melanoma, 3.23 µM; in the assay with NCI-H23 lung it was 5.31 µM; in the assay on MOLT-4 leukemia it was 8.81 µM. In the assay with HCC-2998 colon, this molecule came in with a TGI of 5.95 µM.
